# Data reported in patent US7758856B2, “Bacteriophage for the treatment of bacterial biofilms” (Biocontrol Limited, priority 2003, dated 2010).
# Key:
# Ps. aeruginosa = assay: Minimal inhibition concentration of tobramycin; type: cell-based; conditions: Pseudomonas aeruginosa
# [1] = CF patients, nebulisation twice a day (tobramycin 80 mg; Colistin 2 mega units); cited from earlier work
# [2] = tested on: Ps. aeruginosa GH56 biofilms; assay: In vitro biofilm model (chemostat and Robbins device, viable counts on PVC disks)
MIC (Ps. aeruginosa) [µg/mL],Compound,serum levels [1],"effect on Ps. aeruginosa sessile (biofilm) population ([2]; four applications at MIC (4 mg L^-1), over 24 h / 48 h)","effect on biofilm viability / sessile population ([2]; tobramycin at 10xMIC, four applications)"
4,NC[C@H]1O[C@H](O[C@H]2[C@H](O)[C@@H](O[C@H]3O[C@H](CO)[C@@H](O)[C@H](N)[C@H]3O)[C@H](N)C[C@@H]2N)[C@H](N)C[C@@H]1O [tobramycin],unmeasurable,no significant effect,no significant effect
–,Colistin,unmeasurable,–,–
